Source: patent US20060293320A1, “Heteroaryl derivatives for treating viruses” (Genelabs Technologies, Inc., priority 2005, published 2006)

System: HCV replicon I389luc-ubi-neo/NS3-3′/ET in ET (Huh-lucubineo-ET) cell line
Experiment: Replicon assay (luciferase reporter)
Format: cell-based
Details: Hepatitis C virus; tested at 33 μM; ET (Huh-lucubineo-ET) replicon cells, luciferase activity, relative to no compound control; read-out: % inhibition of replication
Experimental: A cell line, ET (Huh-lucubineo-ET) was used for screening of compounds of the present invention for HCV RNA dependent RNA polymerase. The ET cell line was stably transfected with RNA transcripts harboring a I389luc-ubi-neo/NS3-3′/ET; replicon with firefly luciferase-ubiquitin-neomycin phosphotransferase fusion protein and EMCV-IRES driven NS3-5B polyprotein containing the cell culture adaptive mutations (E1202G; T1280I; K1846T) (Krieger at al, 2001 and unpublished). The ET cells were grown in DMEM, supplemented with 10% fetal calf serum, 2 mM Glutamine, Penicillin (100 IU/mL)/Streptomycin (100 μg/mL), 1× nonessential amino acids, and 250 μg/mL G418 (“Geneticin”). They were all available through Life Technologies (Bethesda, Md.). The cells were plated at 0.5-1.0×10^4 cells/well in the 96 well plates and incubated for 24 hrs before adding nucleoside analogs. Then the compounds were added to the cells to achieve a final concentration of 5 or 50 μM. Luciferase activity was measured 48-72 hours later by adding a lysis buffer and the substrate (Catalog number Glo-lysis buffer E2661 and Bright-Glo leuciferase system E2620 Promega, Madison, Wis.). Cells should not be too confluent during the assay. Percent inhibition of replication was plotted relative to no compound control. Under the same condition, cytotoxicity of the compounds was determined using cell proliferation reagent, WST-1 (Roche, Germany). The compounds showing potent antiviral activities, but no significant cytotoxicities were chosen for further evaluation. For these determinations, a 10-point, 2-fold serial dilution for each compound was used which spans a concentration range of 1000 fold. IC50 and TC50 values were calculated by fitting % inhibition at each concentration to the following equation: % inhibition=100%/[(IC50/[I])^b+1] where b is Hill's coefficient.
The % inhibition at a particular concentration was determined using the following equation: % Inhibition=100−[100*(Lum with inhibitor-bg)/(Lum with no inhibitor-bg)] where bg was the background with no replicon cell, and Lum was the luminescence intensity of the reporter luciferase gene.

Row | SMILES | inhibition at 33 µM
1 | Cc1nc(C)c(-c2ccc3cc(-c4c(C5CCCCC5)cc(C(=O)O)n4CC(=O)O)ccc3n2)s1 [Compound 30, 1-(carboxymethyl)-4-cyclohexyl-5-(2-(2,4-dimethylthiazol-5-yl)quinolin-6-yl)-1H-pyrrole-2-carboxylic acid] | 22%
2 | Cc1nc(C)c(-c2ccc3cc(-c4c(C5CCCCC5)cc(C(=O)O)n4CC(=O)OC(C)(C)C)ccc3n2)s1 [Compound 31, 1-((tert-butoxycarbonyl)methyl)-4-cyclohexyl-5-(2-(2,4-dimethylthiazol-5-yl)quinolin-6-yl)-1H-pyrrole-2-carboxylic acid] | 48%
3 | Cc1nc(C)c(-c2ccc3cc(-c4c(C5CCCCC5)cc(C(=O)O)n4CC(=O)N4CCOCC4)ccc3n2)s1 [Compound 32, 4-cyclohexyl-5-(2-(2,4-dimethylthiazol-5-yl)quinolin-6-yl)-1-(2-morpholino-2-oxoethyl)-1H-pyrrole-2-carboxylic acid] | 57%
4 | Cc1nc(C)c(-c2ccc3cc(-c4c(C5CCCCC5)cc(C(=O)NCC(=O)O)n4CC(=O)N4CCOCC4)ccc3n2)s1 [Compound 33, 2-(4-cyclohexyl-5-(2-(2,4-dimethylthiazol-5-yl)quinolin-6-yl)-1-(2-morpholino-2-oxoethyl)-1H-pyrrole-2-carboxamido)acetic acid] | 17%
